Three molecules from ChEMBL document CHEMBL2074084, “Cloning and functional characterization of a novel rat organic anion transporter mediating basolateral uptake of methotrexate in the kidney” (J Biol Chem, 1996) can be followed below.

What all share (assay type): functional, cell-based
Data set [1] concerns the target T1, Solute carrier organic anion transporter family member 1A3 (Rattus norvegicus, UniProt P70502).
T1 sequence (P70502 whole entry): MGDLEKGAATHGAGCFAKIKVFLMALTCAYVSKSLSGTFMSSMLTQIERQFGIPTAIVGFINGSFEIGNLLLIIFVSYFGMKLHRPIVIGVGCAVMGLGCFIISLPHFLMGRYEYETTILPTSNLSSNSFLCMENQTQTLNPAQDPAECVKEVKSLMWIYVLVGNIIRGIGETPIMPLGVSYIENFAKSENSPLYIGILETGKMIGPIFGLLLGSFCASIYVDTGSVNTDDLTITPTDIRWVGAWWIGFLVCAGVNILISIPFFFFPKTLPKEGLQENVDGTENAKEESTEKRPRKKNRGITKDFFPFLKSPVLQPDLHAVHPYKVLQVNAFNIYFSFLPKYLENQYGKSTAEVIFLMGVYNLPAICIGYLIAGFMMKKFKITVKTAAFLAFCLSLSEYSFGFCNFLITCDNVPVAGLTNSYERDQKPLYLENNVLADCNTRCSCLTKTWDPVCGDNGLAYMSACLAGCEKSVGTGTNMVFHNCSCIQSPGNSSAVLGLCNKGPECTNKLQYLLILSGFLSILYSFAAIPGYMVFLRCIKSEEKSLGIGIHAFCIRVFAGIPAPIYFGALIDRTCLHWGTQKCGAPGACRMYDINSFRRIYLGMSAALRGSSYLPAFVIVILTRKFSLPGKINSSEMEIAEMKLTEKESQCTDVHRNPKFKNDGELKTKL
Briefly: TP_TRANSPORTER: inhibition of MTX uptake (MTX: 0.026 uM, Folic acid: 100 uM) in OAT-K1-expressing LLC-PK1 cells. As to conditions: pig, llc-pk1, 100 µM.

Data set [2] concerns the target T1, Solute carrier organic anion transporter family member 1A3. Briefly: TP_TRANSPORTER: inhibition of MTX uptake (MTX: 0.026 uM, BSP: 100 uM) in OAT-K1-expressing LLC-PK1 cells. As to conditions: pig, llc-pk1, 100 µM.
Substrate in data set [3]: CN(Cc1cnc2nc(N)nc(N)c2n1)c1ccc(C(=O)N[C@@H](CCC(=O)O)C(=O)O)cc1
Briefly: TP_TRANSPORTER: uptake in OAT-K1-expressing LLC-PK1 cells.

On to `Nc1nc2ncc(CNc3ccc(C(=O)N[C@@H](CCC(=O)O)C(=O)O)cc3)nc2c(=O)[nH]1` [FOLIC ACID], for which the Activity result in data set [1] was “inhibitor [(at a rough estimate) 35 % of control]”.
With `O=C1OC(c2ccc(O)c(S(=O)(=O)[O-])c2)(c2ccc(O)c(S(=O)(=O)[O-])c2)c2c(Br)c(Br)c(Br)c(Br)c21.[Na+].[Na+]` [SULFOBROMOPHTHALEIN SODIUM], the Activity entry in data set [2] is “inhibitor [(at a rough estimate) 35 % of control]”.

B1: Solute carrier organic anion transporter family member 1A3 (Rattus norvegicus) (protein)
chain: MGDLEKGAATHGAGCFAKIKVFLMALTCAYVSKSLSGTFMSSMLTQIERQFGIPTAIVGFINGSFEIGNLLLIIFVSYFGMKLHRPIVIGVGCAVMGLGCFIISLPHFLMGRYEYETTILPTSNLSSNSFLCMENQTQTLNPAQDPAECVKEVKSLMWIYVLVGNIIRGIGETPIMPLGVSYIENFAKSENSPLYIGILETGKMIGPIFGLLLGSFCASIYVDTGSVNTDDLTITPTDIRWVGAWWIGFLVCAGVNILISIPFFFFPKTLPKEGLQENVDGTENAKEESTEKRPRKKNRGITKDFFPFLKSPVLQPDLHAVHPYKVLQVNAFNIYFSFLPKYLENQYGKSTAEVIFLMGVYNLPAICIGYLIAGFMMKKFKITVKTAAFLAFCLSLSEYSFGFCNFLITCDNVPVAGLTNSYERDQKPLYLENNVLADCNTRCSCLTKTWDPVCGDNGLAYMSACLAGCEKSVGTGTNMVFHNCSCIQSPGNSSAVLGLCNKGPECTNKLQYLLILSGFLSILYSFAAIPGYMVFLRCIKSEEKSLGIGIHAFCIRVFAGIPAPIYFGALIDRTCLHWGTQKCGAPGACRMYDINSFRRIYLGMSAALRGSSYLPAFVIVILTRKFSLPGKINSSEMEIAEMKLTEKESQCTDVHRNPKFKNDGELKTKL
The Km is the substrate concentration at which the rate is half of its maximum. For B1, the Km in data set [3] was 1 µM.
